Data set [1] in a line: Cytotoxicity in PBMCs (MTS assay). The following applies: human. The class given is cell-based, human. On the procedure:
(§1) The activity of the certain compounds of the invention was evaluated in peripheral blood mononuclear cells (PBMCs) infected with the low passage, clinical isolate HIV-1 ROJO to generate a measure of the efficacy of these compounds in acutely infected cells. The use of these normal human cells allows an estimate of the therapeutic index of these compounds to be made. Fresh PBMCs from two donors were pooled and stimulated with PHA-P for 48-72 hours. The cells were then cultured in the presence of IL-2 to maintain the cell division initiated by the mitogenic signal. The virus was added at a multiplicity of infection of 0.1. The cells were cultured for 7 days post infection prior to the evaluation of efficacy. Viral replication was measured by the level of reverse transcriptase activity in the supernatant and cytotoxicity was measured with the MTS assay.
On the technique in general: Tetrazolium assays rely on reduction of a dye to a coloured formazan, in cell work by metabolically active cells.

Another data set concerns HCT-116 cells. Kind of data set: Calcein AM viability assay, HCT-116. It counts as cell-based. The following applies: Homo sapiens. In a few lines:
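Cells plated (1,000 HCT-116 in RPMI-1640/10% FCS; 4,000 IMR90 in MEM-alpha/10% FCS), adhered overnight, then given 7 doses of compound at 0-250 nM for 72 h at 37 °C. Viability read by Calcein AM fluorescence (ex 485, em 530) after 75 min; IC50 derived.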

For the next data set, the target named is T1, Cdc2/cyclin B (Homo sapiens, UniProt P06493).
T1 construct: purchased
Kind of data set: Biochemical kinase assay Cdc2/cyclin B. Conditions: Table 6. A digest of the protocol:
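Radiometric TCA-precipitation assay measuring [γ-32P]ATP incorporation into Histone H1 (20 μg); 50 μM ATP, 10% DMSO, Tris pH 7.5 with MgCl2 and DTT. Compounds at 1 nM to 10 μM; reaction 20 min at 30 °C, stopped with EDTA/ATP. Activity relative to DMSO control after subtracting 50 mM EDTA background.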

The test system of another data set is HIV-1 ROJO. Kind of data set: Antiviral activity in PBMCs infected with HIV-1 ROJO (reverse transcriptase). It counts as cell-based. Conditions: for IC50: Human immunodeficiency virus 1, PBMC, 168 h, read-out: IC50: 50% inhibition of virus replication measured by reverse transcriptase levels in the supernatant, HIV-1 ROJO, 7 days post infection. On the procedure:
as §1

A further data set addresses T2, Cdk4/cyclin D1 (Homo sapiens, UniProt P11802).
T2 construct: made in house; host or cells: Sf9 insect cells
Kind of data set: Biochemical kinase assay Cdk4/cyclin D1. Conditions: Table 6. A digest of the protocol: (§2)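 Sf9-expressed Cdk/cyclin heterodimers phosphorylate GST-Rb (residues 379–928, 40 μg) with 50 μM ATP plus [γ-33P]ATP, pH 7.5, 10% DMSO, 15 min at 30 °C. Compounds 1 nM–10 μM. 33P captured on glutathione-sepharose and scintillation-counted; activity relative to DMSO control after EDTA-background subtraction.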

The next data set concerns the target T3, Cdk2/cyclin E (Homo sapiens, UniProt P24941).
T3 construct: made in house; host or cells: Sf9 insect cells
Kind of data set: Biochemical kinase assay Cdk2/cyclin E. The following applies: Table 6. A digest of the protocol:
as §2

Another data set has as its system IMR90 cells. Kind of data set: Calcein AM viability assay, IMR90. It counts as cell-based. Conditions: Homo sapiens, IMR-90, 72 h, read-out: IMR90 viability IC50. On the procedure:
The potency of Cdk inhibitors, as measured by loss of cellular viability, was determined with the Calcein AM assay (Molecular Probes). Calcein AM is a substrate of intracellular esterases, which is cleaved only in viable cells to generate a fluorescent product that can be quantified with a fluorescent plate reader. The fluorescent signal is proportional to the number of viable cells, and thus loss of signal in response to the exposure of cells to Cdk inhibitors correlates with a loss of viability. This assay can distinguish cell cycle arrest, in which cells may still by viable, from loss of viability and is thus well suited for the evaluation of Cdk inhibitors. A compound that is a potent cytotoxic, may cause significant loss of cell viability in such assay.
Cellular IC50's were determined in the human colorectal carcinoma cell line, HCT-116, and the normal human fibroblast, IMR90. Protein adjusted IC50's were also determined in HCT-116.
HCT-116 or IMR90 cells were recovered from sub-confluent plates by trypsinization and 1,000 or 4,000 cells, respectively, were plated in 24-well dishes and incubated overnight at 37° C., 5% CO2. […]
A 5 μM Calcein AM solution was prepared by dissolving a […] aliquot of Calcein (Molecular Probes catalog # C3100) in 50 μl DMSO. […] (protected from light) and the fluorescent signal was read on a fluorescent plate reader (excitation 485/20 and emission 530/25).

Data set [2] relates to NCI panel of 60 cell lines. Kind of data set: NCI panel of human tumor cell lines (SRB), Mean-Graph Mid-point. Conditions: read-out: NCI panel MG-MID (Mean-Graph Mid-point, average IC50 over the whole cell panel). It counts as cell-based. An excerpt:
(§3) The evaluation of compounds at the National Cancer Institute in their panel of 60 cell lines provides a wealth of information regarding efficacy in a wide range of tumor types and genetic backgrounds. Included within this panel are cell lines derived from leukemia, melanoma and cancers of the lung, colon, brain, ovary, breast, prostate and kidney. Use of this panel provides a measure of the efficacy of compounds in cells with alterations in many genes that are associated with neoplastic transformation including p53 and Her2/Neu as well as those involved in metabolism and those which confer multi-drug resistance. The data generated in these cell lines with the protocol described below can be used to evaluate the activity of compounds.
Cells were grown in RPMI-1640 10% FCS and plated in 96 well micro-titer plates at densities ranging from 5,000 to 40,000 cells/well. The plates were incubated for 24 hours at 37° C., 5% CO2 for 24 hours. Media containing twice the desired final concentration of the compound (5 doses spanning 4 logs) was prepared and 100 μl was added to each well containing 100 μl media plus cells to yield the desired final concentration. The plates were then incubated for an additional 48 hours.
The effect of the compound on cellular viability was determined with the Sulforhodamine B (SRB) assay, which measures total protein. Cells were fixed with cold TCA to a final concentration of 10% and incubated at 4° C. for 60 minutes. The supernatant was discarded and the plates were washed five times with water and air-dried. SRB solution at […] in 1% acetic acid was added to each well and the plates were incubated for 10 minutes at room temperature. The plates were washed five times with 1% acetic acid and air-dried. The bound stain was solubilized with 10 mM trizma base and the absorbance was read on a plate reader at […].

The test system of data set [3] is adriamycin resistant cell line (ADR-res). Kind of data set: NCI panel (SRB), adriamycin resistant cell line. It counts as cell-based. The following applies: Homo sapiens.
From the text: as §3
Cells were grown in RPMI-1640 10% FCS and plated in 96 well micro-titer plates at densities ranging from 5,000 to 40,000 cells/well. The plates were incubated for 24 hours at 37° C., 5% CO2 for 24 hours. […]
The effect of the compound on cellular viability was determined with the Sulforhodamine B (SRB) assay, which measures total protein. […] The bound stain was solubilized with 10 mM trizma base and the absorbance was read on a plate reader at […].

The mark [4] stands for this setting: HCT-116, non-protein adjusted, Table 6, read-out: HCT-116 viability IC50.
Where [5] appears, read: HCT-116, 72 h, read-out: HCT-116 IC50 Viability.

Consider 5 compounds from patent US7605175B2, “Inhibitors of cyclin-dependent kinases, compositions and uses related thereto” (GPC Biotech AG, priority 2001, dated 2009).

Read-outs that look alike come from different tables or passages of the source.

T2 sequence (P11802 whole entry, species assumed): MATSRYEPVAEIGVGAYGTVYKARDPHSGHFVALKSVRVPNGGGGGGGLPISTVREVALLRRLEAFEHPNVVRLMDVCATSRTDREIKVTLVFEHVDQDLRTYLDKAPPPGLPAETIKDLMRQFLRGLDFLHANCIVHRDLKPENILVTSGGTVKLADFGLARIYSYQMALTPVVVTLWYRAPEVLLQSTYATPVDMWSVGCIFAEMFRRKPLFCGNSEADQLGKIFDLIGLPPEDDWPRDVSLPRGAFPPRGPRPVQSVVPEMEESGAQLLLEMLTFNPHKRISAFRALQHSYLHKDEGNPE
T2 sequence (P24385 whole entry partner, species assumed): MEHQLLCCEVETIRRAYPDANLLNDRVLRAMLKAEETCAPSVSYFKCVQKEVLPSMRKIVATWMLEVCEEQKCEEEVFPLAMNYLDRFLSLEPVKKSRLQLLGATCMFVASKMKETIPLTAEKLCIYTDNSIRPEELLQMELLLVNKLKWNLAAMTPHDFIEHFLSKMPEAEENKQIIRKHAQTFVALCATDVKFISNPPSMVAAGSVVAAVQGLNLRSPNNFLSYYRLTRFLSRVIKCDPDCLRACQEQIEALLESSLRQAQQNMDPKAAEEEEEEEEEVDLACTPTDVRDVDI
T1 sequence (P06493 whole entry, species assumed): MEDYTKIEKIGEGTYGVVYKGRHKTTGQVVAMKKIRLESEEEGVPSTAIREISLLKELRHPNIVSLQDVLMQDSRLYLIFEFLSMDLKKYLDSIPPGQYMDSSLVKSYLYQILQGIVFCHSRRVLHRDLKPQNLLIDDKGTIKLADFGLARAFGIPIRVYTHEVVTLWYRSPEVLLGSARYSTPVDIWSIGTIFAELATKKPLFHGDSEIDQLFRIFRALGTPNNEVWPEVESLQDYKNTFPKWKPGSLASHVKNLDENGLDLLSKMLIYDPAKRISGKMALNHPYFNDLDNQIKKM
T1 sequence (P14635 whole entry partner, species assumed): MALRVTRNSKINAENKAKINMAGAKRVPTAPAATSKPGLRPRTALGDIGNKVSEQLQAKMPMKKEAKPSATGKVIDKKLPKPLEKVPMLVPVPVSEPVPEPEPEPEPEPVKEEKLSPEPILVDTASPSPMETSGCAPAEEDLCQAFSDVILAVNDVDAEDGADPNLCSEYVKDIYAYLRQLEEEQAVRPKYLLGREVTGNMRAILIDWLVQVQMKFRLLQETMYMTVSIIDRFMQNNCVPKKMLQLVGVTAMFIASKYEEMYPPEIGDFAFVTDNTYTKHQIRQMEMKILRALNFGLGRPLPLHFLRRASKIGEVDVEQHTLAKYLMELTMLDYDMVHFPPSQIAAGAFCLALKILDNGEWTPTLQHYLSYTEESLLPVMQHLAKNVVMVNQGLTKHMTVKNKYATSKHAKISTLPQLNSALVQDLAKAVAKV

As a reminder, the CC50 is the concentration that lowers cell viability or growth by half. Read a low CC50 as harm at low concentration. One may read the IC50 as the point on the concentration scale where inhibition reaches its midpoint. In turn, `CC(C)c1nn(-c2c(Cl)cc(Cl)cc2Cl)c2nc(Cc3ccc(OCC(C)(C)O)cc3)[nH]c(=O)c12` [Compound A64] came in with a cytotoxic concentration (CC50) at 7 days in data set [1] of less than 100 nM. The IC50 with HCT-116 cells (setting [4]) was less than 100 nM; on Cdc2/cyclin B, less than 100 nM; in the data set on HIV-1 ROJO it was less than 10 nM; at Cdk4/cyclin D1, less than 1000 nM; against Cdk2/cyclin E, less than 100 nM. For the same compound, the “TI: TC50/IC50” value in the data set on HIV-1 ROJO is more than 10.

As for `CC(C)c1nn(-c2c(Cl)cccc2Cl)c2nc(Cc3ccc(OP(=O)(O)O)cc3)[nH]c(=O)c12` [Compound B], the IC50 in the data set on IMR90 cells and in the data set on HCT-116 cells (setting [5]) was less than 1000 nM throughout.

As to `O=C(Nc1cccc2c1C(=O)c1c-2n[nH]c1-c1ccc(OP(=O)(O)O)cc1)NN1CCOCC1` [J], the figures for the IC50 in the data set on IMR90 cells and with HCT-116 cells (setting [5]) were less than 100 nM and less than 1000 nM, respectively.

Consider `CC(C)c1nn(-c2c(Cl)cc(Cl)cc2Cl)c2nc(Cc3ccc(OCCN4CCOCC4)cc3)[nH]c(=O)c12` [A], for which the IC50 in [2] was less than 100 nM; in [3], less than 1000 nM; in the data set with HCT-116 cells (HCT-116, plus 1 mg/ml alpha acidic glycoprotein and 45 mg/ml human serum albumin, read-out: HCT-116 IC50 Protein adjusted), less than 1000 nM.

The compound `CC(C)c1nn(-c2c(Cl)cccc2Cl)c2nc(Cc3ccc(OCCN4CCOCC4)c(O)c3)[nH]c(=O)c12` [Compound A32] yielded a half-maximal cytotoxic concentration (CC50) at 7 days in data set [1] of less than 100 nM. Moreover, the half-inhibitory concentration (IC50) with HCT-116 cells (setting [4]) is less than 100 nM; at Cdc2/cyclin B it was less than 1000 nM; in the data set with HIV-1 ROJO, less than 10 nM; on Cdk4/cyclin D1 it was less than 100 nM; against Cdk2/cyclin E it was less than 100 nM. Also, in the data set on HIV-1 ROJO, the “TI: TC50/IC50” value is more than 10.
